Data from paper PMC11627468, “Novel enzyme‐resistant pancreatic polypeptide analogs evoke pancreatic beta‐cell rest, enhance islet cell turnover, and inhibit food intake in mice” (Biofactors (Oxford, England), 2024).
No end group written: not given here.

Tests used:
C57BL/6 mice [1] = test: Glucose tolerance in mice; format: in vivo; details: exendin‐4 0.25 nmol/kg or CCK‐8 25 nmol/kg with glucose 18 mmol/kg i.p., versus glucose control; n = 6
Procedure: Acute in vivo studies were conducted in groups (n = 6) of 4‐month‐old male C57BL/6 mice (Envigo, Huntington, UK). All mice were maintained on standard rodent chow (10% fat, 30% protein, and 60% carbohydrate; Trouw Nutrition, Northwich, UK), and drinking water provided ad libitum. Mice were housed individually and kept in a temperature‐controlled environment (22 ± 2°C), with a 12‐h light/dark cycle. Experiments were carried out in accordance with the UK Animal Scientific Procedures Act 1986 as well as being approved by Ulster University Animal Ethics Review Committee (AWERB) committee and protected by the UK Home Office Animal project license number PPL2902, approved on April 26, 2021. Acute effects of test peptides on food intake were tested in overnight (16 h) fasted mice. Briefly, fasted mice were administered an intraperitoneal (i.p.) injection of saline vehicle (0.9% (w/v) NaCl) alone or in combination with test peptides (each at 25, 75, or 200 nmol/kg bw) and cumulative food intake measured at regular intervals, to assess the pharmacodynamic profile of the test peptides. For food intake studies, mice were provided with preweighed rodent maintenance diet in their food hopper at t = 0 min, which was then re‐weighed at each timepoint with all due care taken to account for any wastage or crumbling of the food pellets. In this regard, the investigator was present at all times during the 180‐min test period to ensure accuracy and consistency in all measurements. Furthermore, effects of PP or related peptides (25 nmol/kg bw) on glucose homeostasis and insulin secretion were evaluated in overnight fasted mice following i.p. injection of glucose alone (18 mmol/kg bw) or in combination with PP peptides (each at 25 nmol/kg bw). […] Blood glucose was measured immediately using a hand‐held Ascencia Contour blood glucose meter (Bayer Healthcare, Newbury, Berkshire, UK). […]

C57BL/6 mice [2] = test: Acute food intake in overnight fasted mice; format: in vivo; details: versus saline, n = 6
Procedure: Acute in vivo studies were conducted in groups (n = 6) of 4‐month‐old male C57BL/6 mice (Envigo, Huntington, UK). All mice were maintained on standard rodent chow (10% fat, 30% protein, and 60% carbohydrate; Trouw Nutrition, Northwich, UK), and drinking water provided ad libitum. Mice were housed individually and kept in a temperature‐controlled environment (22 ± 2°C), with a 12‐h light/dark cycle. Experiments were carried out in accordance with the UK Animal Scientific Procedures Act 1986 as well as being approved by Ulster University Animal Ethics Review Committee (AWERB) committee and protected by the UK Home Office Animal project license number PPL2902, approved on April 26, 2021. Acute effects of test peptides on food intake were tested in overnight (16 h) fasted mice. Briefly, fasted mice were administered an intraperitoneal (i.p.) injection of saline vehicle (0.9% (w/v) NaCl) alone or in combination with test peptides (each at 25, 75, or 200 nmol/kg bw) and cumulative food intake measured at regular intervals, to assess the pharmacodynamic profile of the test peptides. For food intake studies, mice were provided with preweighed rodent maintenance diet in their food hopper at t = 0 min, which was then re‐weighed at each timepoint with all due care taken to account for any wastage or crumbling of the food pellets. In this regard, the investigator was present at all times during the 180‐min test period to ensure accuracy and consistency in all measurements. Furthermore, effects of PP or related peptides (25 nmol/kg bw) on glucose homeostasis and insulin secretion were evaluated in overnight fasted mice following i.p. injection of glucose alone (18 mmol/kg bw) or in combination with PP peptides (each at 25 nmol/kg bw).

C57BL/6 mice [3] = test: Glucose‐stimulated plasma insulin in mice; format: in vivo; details: n = 6
Procedure: Acute in vivo studies were conducted in groups (n = 6) of 4‐month‐old male C57BL/6 mice (Envigo, Huntington, UK). All mice were maintained on standard rodent chow (10% fat, 30% protein, and 60% carbohydrate; Trouw Nutrition, Northwich, UK), and drinking water provided ad libitum. Mice were housed individually and kept in a temperature‐controlled environment (22 ± 2°C), with a 12‐h light/dark cycle. Experiments were carried out in accordance with the UK Animal Scientific Procedures Act 1986 as well as being approved by Ulster University Animal Ethics Review Committee (AWERB) committee and protected by the UK Home Office Animal project license number PPL2902, approved on April 26, 2021. Acute effects of test peptides on food intake were tested in overnight (16 h) fasted mice. Briefly, fasted mice were administered an intraperitoneal (i.p.) injection of saline vehicle (0.9% (w/v) NaCl) alone or in combination with test peptides (each at 25, 75, or 200 nmol/kg bw) and cumulative food intake measured at regular intervals, to assess the pharmacodynamic profile of the test peptides. For food intake studies, mice were provided with preweighed rodent maintenance diet in their food hopper at t = 0 min, which was then re‐weighed at each timepoint with all due care taken to account for any wastage or crumbling of the food pellets. In this regard, the investigator was present at all times during the 180‐min test period to ensure accuracy and consistency in all measurements. Furthermore, effects of PP or related peptides (25 nmol/kg bw) on glucose homeostasis and insulin secretion were evaluated in overnight fasted mice following i.p. injection of glucose alone (18 mmol/kg bw) or in combination with PP peptides (each at 25 nmol/kg bw). […] Blood glucose was measured immediately using a hand‐held Ascencia Contour blood glucose meter (Bayer Healthcare, Newbury, Berkshire, UK). For plasma insulin, blood was collected in chilled fluoride/heparin‐coated microcentrifuge tubes (Sarstedt, Numbrecht, Germany) and centrifuged using a Beckman microcentrifuge (Beckman Instruments, Galway, Ireland) for 10 min at 12,000 rpm. Plasma was separated and stored at −20°C, until determination of plasma insulin by radioimmunoassay.[23]

BRIN‐BD11 beta‐cells [4] = test: Protection against cytokine‐induced beta‐cell apoptosis (TUNEL); format: cell-based; details: peptides 10^−8 and 10^−6 M, cytokine cocktail IL‐1β 100 U/mL, IFNγ 20 U/mL, TNFα 200 U/mL, n = 3
Procedure: To assess the effects of PP and related peptides (10^−8 and 10^−6 M) on beta‐cell proliferation and apoptosis, BRIN‐BD11 beta‐cells were seeded onto sterilized, clear‐glass coverslips (16 mm diameter) and placed in 12‐well plates (Falcon Ltd) at a density of 40,000 cells per well and cultured for 18 h. Media control (11.1 mM glucose), GLP‐1 (10^−8 and 10^−6 M), and a cytokine cocktail mix (IL‐1β [100 U/mL], IFNγ [20 U/mL], TNFα [200 U/mL], Sigma Aldrich, UK) were employed as controls, as appropriate. Cells were then rinsed with PBS and fixed using 4% paraformaldehyde. After antigen retrieval with sodium citrate buffer at 95°C for 20 min, blocking was performed using 2% bovine serum albumin (BSA) for 45 min. For proliferation studies, the slips were then incubated at 37°C with rabbit anti‐Ki‐67 primary antibody (Abcam, ab15580), and subsequently with Alexa Fluor® 488 secondary antibody. Coverslips were mounted onto polylysine‐coated microscope slides using a 50:50 glycerol:PBS solution and stored at 4°C until required for analysis. To assess the ability of PP peptides to protect against cytokine‐induced apoptosis, cells were seeded, washed, and fixed as above, with the exception that the media was supplemented with the cytokine mix. […] Proliferation/TUNEL positive frequency was determined using the cell‐counter function on ImageJ Software and expressed as % of total cells analyzed.

BRIN‐BD11 beta‐cells [5] = test: Beta‐cell proliferation (Ki‐67 staining); format: cell-based; details: versus control cultures, n = 3
Procedure: To assess the effects of PP and related peptides (10^−8 and 10^−6 M) on beta‐cell proliferation and apoptosis, BRIN‐BD11 beta‐cells were seeded onto sterilized, clear‐glass coverslips (16 mm diameter) and placed in 12‐well plates (Falcon Ltd) at a density of 40,000 cells per well and cultured for 18 h. Media control (11.1 mM glucose), GLP‐1 (10^−8 and 10^−6 M), and a cytokine cocktail mix (IL‐1β [100 U/mL], IFNγ [20 U/mL], TNFα [200 U/mL], Sigma Aldrich, UK) were employed as controls, as appropriate. Cells were then rinsed with PBS and fixed using 4% paraformaldehyde. After antigen retrieval with sodium citrate buffer at 95°C for 20 min, blocking was performed using 2% bovine serum albumin (BSA) for 45 min. For proliferation studies, the slips were then incubated at 37°C with rabbit anti‐Ki‐67 primary antibody (Abcam, ab15580), and subsequently with Alexa Fluor® 488 secondary antibody. Coverslips were mounted onto polylysine‐coated microscope slides using a 50:50 glycerol:PBS solution and stored at 4°C until required for analysis. To assess the ability of PP peptides to protect against cytokine‐induced apoptosis, cells were seeded, washed, and fixed as above, with the exception that the media was supplemented with the cytokine mix. The slips were then incubated at 37°C with TUNEL reaction mix for 60 min (Roche Diagnostics, Germany), and mounted onto microscope slides. To assess receptor specificity, co‐incubation of PP peptides with the well characterized NPY4R antagonist, (S)‐VU0637120,[24] at 10^−5 M was employed for beta‐cell proliferation experiments, conducted as detailed above. All slides were viewed using a fluorescent microscope (Olympus System Microscope, model BX51; Southend‐on‐Sea, UK) and photographed by DP70 camera adapter system. Proliferation/TUNEL positive frequency was determined using the cell‐counter function on ImageJ Software and expressed as % of total cells analyzed.

Substance: CCK‐8: used for cholecystokinin (CCK) receptor activation in combination studies (DYMGWMDF; ends and bridges not checked; UniProt P06307 96-103, looked up)
- glucose disposal, exendin‐4 or CCK‐8 (C57BL/6 mice [1]): benefits
- food intake (appetite suppression), CCK‐8 alone (C57BL/6 mice [2]; CCK‐8 25 nmol/kg i.p., early observation points): impressive effects on appetite suppression (p < 0.001)
- insulinotropic action, exendin‐4 or CCK‐8 (C57BL/6 mice [3]; exendin‐4 0.25 nmol/kg or CCK‐8 25 nmol/kg with glucose 18 mmol/kg i.p.): significant insulinotropic actions

Substance: (N‐Pal)APLEPVYPGDNATPEQMAQYAADLRRYINMLTRPR‐NH2 [[N‐Pal]PP, PP analog with C‐16 palmitate via γ‐glutamyl spacer at the N‐terminal amino group]
- cumulative food intake (appetite suppression) (C57BL/6 mice [2]; 200 nmol/kg i.p., overnight fasted mice, later observation points): mild inhibitory (p < 0.05) effect
- glucose‐induced insulin secretion (plasma insulin) (C57BL/6 mice [3]; peptide 25 nmol/kg with glucose 18 mmol/kg i.p., versus glucose control): slightly decreasing (p = <0.05 to 0.01)

Substance: glucagon‐like peptide‐1 (HAEGTFTSDVSSYLEGQAAKEFIAWLVKGR; ends and bridges not checked; UniProt P01275 98-127, looked up) [GLP‐1, positive control in proliferation and apoptosis tests]
- protection against cytokine‐induced beta‐cell apoptosis (BRIN‐BD11 beta‐cells [4]): significantly (p = <0.01 to 0.001) protected against cell death
- BRIN‐BD11 cell proliferation (BRIN‐BD11 beta‐cells [5]; peptide 10^−6 M): significantly (p < 0.001) enhanced
- BRIN‐BD11 cell proliferation (BRIN‐BD11 beta‐cells [5]; peptide 10^−8 M): significantly (p < 0.001) enhanced
